These results are taken from patent publication US20120122981A1, “Biomarkers Related to Insulin Resistance and Methods using the Same” (priority 2009, published 2012).

For assay [1] the following is noted: pre-diabetic patients, DPP; cited from earlier work.
Assay [2] is described as follows: Predicted and actual Rd before and after treatment with the insulin sensitizer muraglitozar. In kind it is in vivo, human. Particulars: 16 subjects, pre- vs post-treatment, plasma biomarkers 1-25. The procedure: C-Mur1, baseline prior to muraglitazar treatment; D-Mur2, following treatment with muraglitazar, a peroxisome proliferator-activated receptor agonist and an insulin sensitizer drug. […] Biomarkers 1-25 listed in Table 4 were measured in plasma samples collected from 16 subjects that were taking the insulin sensitizer muraglitozar. The samples were collected pre-(C-Mur—1) and post-treatment (D-Mur—2) with muraglitozar.

Molecules are shown by their SMILES.

`CN(C)C(=N)N=C(N)N` [metformin]: the “reduction of the rate of progression to diabetes” value in assay [1] is recorded as 38%.
With `COc1ccc(OC(=O)N(CC(=O)O)Cc2ccc(OCCc3nc(-c4ccccc4)oc3C)cc2)cc1` [muraglitozar], the “change in predicted Rd with treatment, in agreement with actual Rd by HI clamp” value in assay [2] is given as “increased”.
